Assay results: ChEMBL document CHEMBL1151845, “Terpenoids from Toona ciliata” (2009)
Values after ≈ are worked out from the molar mass of the structure shown.

Tests used:
Trichophyton rubrum = test: Antifungal activity against Trichophyton rubrum after 48 hrs; format: functional
[1] = test system: Staphylococcus epidermidis; test: Antibacterial activity against Staphylococcus epidermidis ATCC 12228 after 18 hrs; format: functional; details: ATCC 12228, 18 h

MIC (Trichophyton rubrum) | MIC [1] | Structure (SMILES)
1.56 µg/mL (≈ 1.69 µM) |  | C[C@@H]1[C@H](O)[C@@H](C)/C=C/C=C/C=C/C=C/C=C/C=C/C=C/[C@H](O[C@@H]2O[C@H](C)[C@@H](O)[C@H](N)[C@@H]2O)C[C@@H]2O[C@](O)(C[C@@H](O)C[C@@H](O)[C@H](O)CC[C@@H](O)C[C@@H](O)CC(=O)O[C@H]1C)C[C@H](O)[C@H]2C(=O)O [AMPHOTERICIN B]
 | 0.39 µg/mL (≈ 1.08 µM) | CC1COc2c(N3CCN(C)CC3)c(F)cc3c(=O)c(C(=O)O)cn1c23 (stereo not drawn) [OFLOXACIN]
12.5 µg/mL (≈ 39 µM) |  | C=C[C@@]1(C)CC[C@H]2[C@@](O)(CC[C@@H]3[C@]2(C)CCC[C@]3(C)C(=O)O)C1 [TOONACILIATIN M]
